#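 Five concentrations, 48 hours, 96-well plates. GI50 is the concentration that inhibits growth by half.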 Activity calls are given as the source filed them. No stated cut-off is given here; in the data, active = GI50 up to about 1.1 µM and inactive = higher.
# Experiments:
# Assay in all cases: NCI tumour cell line growth inhibition, 48 h
# [1] = test system: Hs-578T
# [2] = test system: EKVX
# [3] = test system: OVCAR-3
# [4] = test system: OVCAR-8
# [5] = test system: IGROV-1
# [6] = test system: HOP-62
# [7] = test system: MDA-N
# [8] = test system: MCF7
# [9] = test system: Malme-3M
# [10] = test system: M14
# [11] = test system: SF-539
# [12] = test system: A549
# [13] = test system: OVCAR-4
# [14] = test system: NCI-H226
# [15] = test system: U-251
# [16] = test system: RPMI-8226
# [17] = test system: SK-MEL-5
# [18] = test system: TK-10
# [19] = test system: SW-620
# [20] = test system: UACC-62
# [21] = test system: SK-MEL-28
# [22] = test system: UO-31
# [23] = test system: HCC 2998
# [24] = test system: LOX IMVI
# [25] = test system: NCI-H460
# [26] = test system: UACC-257
# [27] = test system: SK-OV-3
# [28] = test system: HCT-15
# [29] = test system: PC-3
# [30] = test system: OVCAR-5
# [31] = test system: SN12C
# [32] = test system: SK-MEL-2
# [33] = test system: K562
# [34] = test system: ACHN
# [35] = test system: SF-295
# [36] = test system: NCI-H23
# [37] = test system: CCRF-CEM
# [38] = test system: SR
# [39] = test system: HT-29
# [40] = test system: MDA-MB-231
# [41] = test system: HOP-92
# [42] = test system: CAKI-1
# [43] = test system: NCI/ADR-RES
# [44] = test system: MDA-MB-435
# [45] = test system: COLO 205
# [46] = test system: BT-549
# [47] = test system: RXF 393
# [48] = test system: NCI-H522
# [49] = test system: KM12
# [50] = test system: 786-0
# [51] = test system: HCT-116
# [52] = test system: T47D
# [53] = test system: SNB-75
# [54] = test system: SNB-19
# [55] = test system: DU-145
# [56] = test system: MOLT-4
# [57] = test system: SF-268
# [58] = test system: HL-60
smiles,measurement,setting,value
CCOC(=O)c1cc2cc(CSc3ccccc3)ccc2oc1=O,GI50,[1],52.1 µM (inactive)
same,GI50,[2],> 100 µM (inactive)
same,GI50,[3],96.6 µM (inactive)
same,GI50,[4],> 100 µM (inactive)
same,GI50,[5],> 100 µM (inactive)
same,GI50,[6],51.3 µM (inactive)
same,GI50,[7],> 100 µM (inactive)
same,GI50,[8],90.2 µM (inactive)
same,GI50,[9],> 100 µM (inactive)
same,GI50,[10],51.5 µM (inactive)
same,GI50,[11],91.8 µM (inactive)
same,GI50,[12],83.4 µM (inactive)
same,GI50,[13],> 100 µM (inactive)
same,GI50,[14],> 100 µM (inactive)
same,GI50,[15],> 100 µM (inactive)
same,GI50,[16],51.9 µM (inactive)
same,GI50,[17],> 100 µM (inactive)
same,GI50,[18],57.9 µM (inactive)
same,GI50,[19],> 100 µM (inactive)
same,GI50,[20],45.9 µM (inactive)
same,GI50,[21],> 100 µM (inactive)
same,GI50,[22],43.9 µM (inactive)
same,GI50,[23],42.6 µM (inactive)
same,GI50,[24],> 100 µM (inactive)
same,GI50,[25],> 100 µM (inactive)
same,GI50,[26],> 100 µM (inactive)
same,GI50,[27],> 100 µM (inactive)
same,GI50,[28],> 100 µM
same,GI50,[29],91.6 µM (inactive)
same,GI50,[30],> 100 µM (inactive)
same,GI50,[31],> 100 µM (inactive)
same,GI50,[32],92.5 µM (inactive)
same,GI50,[33],82.2 µM (inactive)
same,GI50,[34],> 100 µM (inactive)
same,GI50,[35],43.4 µM (inactive)
same,GI50,[36],> 100 µM (inactive)
same,GI50,[37],> 100 µM (inactive)
same,GI50,[38],> 100 µM (inactive)
same,GI50,[39],> 100 µM (inactive)
same,GI50,[40],52.6 µM (inactive)
same,GI50,[41],> 100 µM (inactive)
same,GI50,[42],> 100 µM (inactive)
same,GI50,[43],> 100 µM (inactive)
same,GI50,[44],> 100 µM (inactive)
same,GI50,[45],> 100 µM (inactive)
same,GI50,[46],> 100 µM (inactive)
same,GI50,[47],39.4 µM (inactive)
same,GI50,[48],> 100 µM (inactive)
same,GI50,[49],> 100 µM (inactive)
same,GI50,[50],94.8 µM (inactive)
same,GI50,[51],> 100 µM (inactive)
same,GI50,[52],> 100 µM (inactive)
same,GI50,[53],38.4 µM (inactive)
same,GI50,[54],46.8 µM (inactive)
same,GI50,[55],89.1 µM (inactive)
same,GI50,[56],> 100 µM (inactive)
same,GI50,[57],> 100 µM (inactive)
O=c1c2cc([N+](=O)[O-])cnc2sn1-c1ccc([N+](=O)[O-])cc1,GI50,[1],29.2 µM (inactive)
same,GI50,[2],40.3 µM (inactive)
same,GI50,[3],34.6 µM (inactive)
same,GI50,[4],42.5 µM (inactive)
same,GI50,[5],52.5 µM (inactive)
same,GI50,[6],52 µM (inactive)
same,GI50,[7],87.7 µM (inactive)
same,GI50,[8],22.4 µM (inactive)
same,GI50,[9],14.2 µM (inactive)
same,GI50,[10],48.8 µM (inactive)
same,GI50,[11],29.2 µM (inactive)
same,GI50,[12],33 µM (inactive)
same,GI50,[13],27.7 µM (inactive)
same,GI50,[14],74.6 µM (inactive)
same,GI50,[15],49.5 µM (inactive)
same,GI50,[16],23.9 µM (inactive)
same,GI50,[17],99.5 µM (inactive)
same,GI50,[18],> 100 µM (inactive)
same,GI50,[19],32.1 µM (inactive)
same,GI50,[20],66.4 µM (inactive)
same,GI50,[21],82.4 µM (inactive)
same,GI50,[22],52 µM (inactive)
same,GI50,[23],43.8 µM (inactive)
same,GI50,[24],18.5 µM (inactive)
same,GI50,[25],45.1 µM (inactive)
same,GI50,[26],> 100 µM (inactive)
same,GI50,[27],35.5 µM (inactive)
same,GI50,[28],28.5 µM
same,GI50,[29],22 µM (inactive)
same,GI50,[30],59.2 µM (inactive)
same,GI50,[31],47.2 µM (inactive)
same,GI50,[32],23.8 µM (inactive)
same,GI50,[34],71.3 µM (inactive)
same,GI50,[35],38.2 µM (inactive)
same,GI50,[36],31.2 µM (inactive)
same,GI50,[37],34.8 µM (inactive)
same,GI50,[38],22.1 µM (inactive)
same,GI50,[39],21.8 µM (inactive)
same,GI50,[40],19.9 µM (inactive)
same,GI50,[58],26 µM (inactive)
same,GI50,[43],28.9 µM (inactive)
same,GI50,[44],84.1 µM (inactive)
same,GI50,[45],16.9 µM (inactive)
same,GI50,[46],40 µM (inactive)
same,GI50,[48],7.28 µM (inactive)
same,GI50,[49],26.4 µM (inactive)
same,GI50,[50],40.4 µM (inactive)
same,GI50,[51],23.7 µM (inactive)
same,GI50,[52],14.7 µM (inactive)
same,GI50,[53],38.1 µM (inactive)
same,GI50,[54],30.1 µM (inactive)
same,GI50,[55],45.7 µM (inactive)
same,GI50,[56],32.1 µM (inactive)
same,GI50,[57],27.1 µM (inactive)

# From ChEMBL document CHEMBL1201862, “PubChem BioAssay data set” (2004)
